Entries after “also recorded” stand apart in the source; their conditions may differ.
Experiments:
[1] = tested on: A549 (lung adenocarcinoma); assay: Cytotoxicity test (Cell Titer, 5 days), tumor line; assay type: cell-based, human
Experimental: (§1) Extracts (aqueous, ethyl, acidic) were obtained from 9 macrofungi species collected by INBio in the Costa Rican rainforests. All of them were subjected to a cytotoxicity test with two human cell lines: A549 (lung adenocarcinoma) and NL20 (immortalized, non-tumor line, obtained from the pulmonary epithelium). Cells were plated in 96-well plates at densities of 2,000 (A549) or 10,000 (NL20) cells per well. Once the cells were stuck to the bottom, serial concentrations of each extract were added and incubated at 37° C. for 5 days under a humidified atmosphere (85% relative humidity) and containing 5% CO2. Eight repeats (wells) were studied for each concentration. At the end of the incubation process, 20 μl of Cell Titer (Promega) were added per well and left for 4 h to allow the formation of the colored formazan salts. Colorimetric quantification was performed with a plate reader (POLARstar Omega) using a wavelength of 490 nm, following already published protocols (Coderch C, Diaz de C M, Zapico J M, Pelaez R, Larrayoz I M, Ramos A, et al. In silico identification and in vivo characterization of small molecule therapeutic hypothermia mimetics. Bioorg Med Chem 2017; 25:6597-604). […]

[2] = tested on: NL20 (immortalized, non-tumor line, pulmonary epithelium); assay: Cytotoxicity test (Cell Titer, 5 days), non-tumor line; assay type: cell-based, human
Experimental: as §1

[3] = tested on: actin cytoskeleton of A549 cells; assay: Modulation of the actin cytoskeleton (Bodipy-falacidine staining, confocal), tumor cells; assay type: cell-based, human; conditions: 0.03 mg/ml, 24-hour treatment
Source text: (§2) Many antitumor substances exert their effects by modulating the cytoskeleton of tumor cells, either acting on microtubules or on actin filaments (Zhang S, Menche D, Zahler S, Vollmer A M, Liebl J, Forster F. In vitro anti-cancer effects of the actin-binding natural compound rhizopodin. Pharmazie 2015; 70:610-5.). To check whether compound TG10 has a similar mechanism of action as other antitumor drugs, tumor cells (A549) and non-tumor cells (NL20) were subjected to a 24-hour treatment with 0.03 mg/ml TG10. At the end of this time, the cells were fixed with 10% formaldehyde for 10 min, permeabilized with 0.1% Triton X-100 for 10 min and exposed to 1: 200 Bodipy-falacidine and 1: 1000 DAPI (Molecular Probes) for 1 h. The images were obtained with a confocal laser microscope (TCS SP5, Leica).

[4] = tested on: actin cytoskeleton of NL20 cells; assay: Modulation of the actin cytoskeleton (Bodipy-falacidine staining, confocal), non-tumor cells; assay type: cell-based, human; conditions: 0.03 mg/ml, 24-hour treatment
Source text: as §2

A549 xenograft tumors = assay: Human lung cancer xenografts in immunosuppressed mice; assay type: in vivo, mice (NOD scid gamma)
Experimental: In this case, 20 male mice of the NOD scid gamma strain (NSG, Stock No. 005557, The Jackson Laboratory) were used. All of them were injected subcutaneously with 10 million A549 cells and left for 2 weeks until the tumors became measurable. Two groups of 10 mice each were randomized and marked as control group (diamonds) and TG10-treated group (squares). From this point, intratumor injections with 100 μl of PBS (control group) or 0.1 mg/ml of TG10 in PBS (treated group) were applied 3 times per week. Before each injection, tumor volumes were measured with a caliper. The mice were euthanized when the tumors reached a size incompatible with animal welfare.

Compound	Antitumor activity against A549 (toxicity test of synthesized TGs) [1]	Toxicity to normal cells (NL20) [2]	Effect on actin fibers of A549 cells [3]	Effect on actin fibers of NL20 cells [4]	Tumor growth versus control (in words) (A549 xenograft tumors; intratumor 0.1 mg/ml in PBS, 3 times per week, FIG. 5)	Average tumor volume at the end of the experiment (A549 xenograft tumors; intratumor 100 μl of 0.1 mg/ml in PBS, 3 times per week from day 15, end day 48, control 2900 mm^3, p<0.05)
2S-TG (C18:2, 9z, 12z; C16:0; C18:1, 9z) [TG9]	no effect on cells	no effect on cells				
CCCCC/C=C\C/C=C\CCCCCCCC(=O)OC[C@@H](COC(=O)CCCCCCC/C=C\CCCCCCCC)OC(=O)CCCCCCCCCCCCCCC [TG10, 2R-TG (C18:2, 9z, 12z; C16:0; C18:1, 9z)]	exhibited antitumor activity; also recorded: TG10 (active)	not toxic to normal cells	completely lost the polymerized actin fibers	maintained the filamentous structure of actin	continued to grow, but at a slower rate	1600 mm^3

From patent publication US20230181514A1, “NEW TRIGLYCERIDE OBTAINED FROM A MACROCYBE TITANS EXTRACT, CLINICAL APPLICATIONS AND PRODUCTION METHOD” (BIO TECH STARE GLOBAL S.R.L., priority 2020, published 2023)
